Measured values published in patent publication EP4755375A1, “PHARMACEUTICAL COMPOSITION CONTAINING SUBSTITUTED INDOL-5-OL DERIVATIVE AND USE THEREOF” (Changshan Conjuchem Biopharmaceutical Research and …, priority 2023, dated 2025).
≈ marks a conversion by molar mass, not a printed value.

Experiments:
[1] = Saturated solubility of API in different solvents/media; assay type: physicochemical; conditions: for solubility at 24 h: organic solvent or mixture, thermodynamic from solid, room temperature
Experimental: The saturated solubility of the compound of the present invention in different solvents/media is shown in Table 1 (Test method: An appropriate excess amount of API was placed in an appropriate amount of solvent and shaken at room temperature for 24 hours, after which the sample solution was processed and analyzed). Among them, methanol and acetone are the optimal choices. Table 1 Saturated Solubility of the Compound of the Present Invention in Different Solvents/Media

[2] = Solubility of API in solvent combinations (visual dissolution); assay type: physicochemical; conditions: organic solvent combinations of Table 2, organic solvent or mixture, thermodynamic from solid; solvent combinations of Table 2 (acetone/methanol, acetone/ethanol, with water or dichloromethane); read-out: solubility of API in the solvent combinations listed in Table 2
Experimental: The solvent compositions capable of simultaneously dissolving the compound of the present invention and the carrier materials are shown in Table 2. The detection method for the solubility of API in different solvent combinations is as follows: Weigh 20 mg of the compound of the present invention and add it to 4 mL of different solvents or solvent combinations, respectively. Gently shake and observe the dissolution phenomenon. If complete dissolution occurs, add a small amount of additional API to the above solution, continue shaking, and observe the dissolution phenomenon. […] All carrier materials listed in Table 2 are soluble in the selected solvents or solvent combinations. Table 2 Solvent Compositions Capable of Simultaneously Dissolving the Compound of the Present Invention and the Carrier

[3] = Solubility testing of solid dispersions in media with different pH values (shaker, 24 hours); assay type: physicochemical; conditions: 0.1mol/L HCl
Experimental: (§1) Weigh an amount of powder (equivalent to 50 mg of API) from Examples 1-7 into a 10-mL vial, add 5 mL of media with different pH values, so that the theoretical concentration of API in the sample solution was about 10 mg/mL. Shake the vials in a shaker for 24 hours, and determine the solubility. During shaking, observe the dissolution phenomenon of the powder in the solution. If the solution becomes clear, add an additional amount of sample powder. Table 4 Solubility of Solid Dispersions Prepared Using Povidone in Different Media
Weigh an amount of powder (equivalent to 50 mg of API) from Examples 9-13 into a 10-mL vial, add a corresponding volume of media with different pH values, so that the theoretical concentration of API in the solution was about 10 mg/mL (the theoretical concentration of API in the sample solution of Example 13 was about 5 mg/mL). Shake the vials in a shaker for 24 hours, and sample at 4 h and 24 h to determine the solubility. During shaking, observe the dissolution phenomenon of the powder in the solution. If the solution becomes clear, add an additional amount of sample powder. Table 7 Solubility of Solid Dispersions Prepared Using HPMC in Different Media
as §1, with “Examples 14-16” for “Examples 1-7”, “add a corresponding volume” for “add 5 mL”, “and sample at 4 h and 24 h to” for “and”, “Table 9” for “Table 4”, “Using HPC” for “Using Povidone”
as §1, with “Examples 17-21” for “Examples 1-7”, “add a corresponding volume” for “add 5 mL”, “and sample at 4 h and 24 h to” for “and”, “Table 11” for “Table 4”, “Using Copovidone S630” for “Using Povidone”
Weigh an amount of powder (equivalent to 50 mg of API) from Examples 22-24 into a 10-mL vial, add a corresponding volume of media with different pH values, so that the theoretical concentration of API in the sample solution was about 10 mg/mL. Shake the vials in a shaker for 24 hours, and sample at 4 h and 24 h to determine solubility. Table 13 Solubility of Solid Dispersions Prepared Using HPMC AS in Different Media
Weigh an amount of powder(equivalent to 50 mg of API) from Examples 25-28 into a 10 mL vial, add a corresponding volume of media with different pH values, so that the theoretical concentration of API in the sample solution was about 10 mg/mL. Shake the vials in a shaker for 24 hours, and sample at 4 h and 24 h to determine the solubility. During shaking, observe the dissolution phenomenon of the powder in the solution. If the solution becomes clear, add an additional amount of sample powder. Table 15 Solubility of Solid Dispersions Prepared Using Polyethylene Glycol in Different Media […]

[4] = Dog PK: bioavailability of solid dispersions and API; assay type: in vivo; conditions: plasma, beagle dogs (male, fasted), oral, dose 5 mg/kg
Experimental: Based on the solubility data from the solid dispersion formulation examples above, the API (administration form: 10 mg/mL suspension, API suspended in 0.5% CMC-Na solution) and solid dispersions prepared using PVP K30 (drug-excipient ratios of 1:3 and 1:4, respectively) were selected for dog PK experiments. The solid dispersions were filled into hard capsules and orally administered to beagle dogs (male, fasted, 3 dogs per group) at a dose of 5 mg/kg. Whole blood samples of 0.3 mL were collected at 0 min, 10 min, 15 min, 30 min, 1 h, 2 h, 3 h, 4 h, 6 h, 8 h, 12 h, and 24 h after administration. The blood samples were placed in anticoagulant tubes, gently inverted several times, and then kept on wet ice in preparation for centrifugation. Within 30 minutes after collection, the samples were centrifuged at about 2000 × g (force) at 4°C for 10 minutes to obtain plasma. The resulting plasma samples were immediately divided into two aliquots (about 75 µL each) and transferred to cryovials. The samples were maintained on wet ice throughout the processing and stored in a freezer at -75 ± 15°C until analysis. The concentrations of the test substance in the plasma samples were analyzed using an LC-MS/MS method. Table 50 Summary of Dog PK Data for SDD Formulations

[5] = Dog PK experiment for tablets; assay type: in vivo; conditions: plasma, beagle dogs (male, fasted), oral, dose 5 mg/kg
Experimental: Example 59 and Example 60 were orally administered to beagle dogs (male, fasted, 3 dogs per group) at a dose of about 5 mg/kg. Example 65 was orally administered to beagle dogs (half male and half female, fasted, 8 dogs) at a dose of 50 mg/animal (about 5 mg/kg). Whole blood samples of 0.3 mL were collected at 0 min, 10 min, 15 min, 30 min, 1 h, 2 h, 3 h, 4 h, 6 h, 8 h, 12 h, and 24 h after administration. The blood samples were placed in anticoagulant tubes, gently inverted several times, and then kept on wet ice in preparation for centrifugation. Within 30 minutes after collection, the samples were centrifuged at about 2000 × g (force) at 4°C for 10 minutes to obtain plasma. The resulting plasma samples were immediately divided into two aliquots (about 75 µL each) and transferred to cryovials. The samples were maintained on wet ice throughout the processing and stored in a freezer at -75 ± 15°C until analysis. The concentrations of the test substance in the plasma samples were analyzed using an LC-MS/MS method. Table 51 Summary of Dog PK Data for Tablets

Solubility Description ([1]; Acetone): Slightly soluble
Solubility Description ([1]; Acetonitrile): Slightly soluble
Solubility Description ([1]; Ethanol): Slightly soluble
Solubility Description ([1]; Ethyl acetate): Slightly soluble
Solubility Description ([1]; Isopropanol): Slightly soluble
Solubility Description ([1]; Methanol): Slightly soluble
Solubility Description ([1]; Propylene glycol): Slightly soluble
solubility at 24 h ([1]; Acetone): 5990 µg/mL (≈ 12.5 mM)
solubility at 24 h ([1]; Acetonitrile): 1220 µg/mL (≈ 2.54 mM)
solubility at 24 h ([1]; Ethanol): 5170 µg/mL (≈ 10.8 mM)
solubility at 24 h ([1]; Ethyl acetate): 4980 µg/mL (≈ 10.4 mM)
solubility at 24 h ([1]; Isopropanol): 2340 µg/mL (≈ 4.87 mM)
solubility at 24 h ([1]; Methanol): 8360 µg/mL (≈ 17.4 mM)
solubility at 24 h ([1]; Propylene glycol): 2220 µg/mL (≈ 4.62 mM)
Solubility [2]: > 5000 µg/mL
Solubility ([3]; 4h, API alone, sample concentration not given): 50 µg/mL (≈ 0.104 mM)
Solubility ([3]; 24h, API alone, sample concentration not given): 50 µg/mL (≈ 0.104 mM)
solubility at 2 h ([3]; simulated gastric fluid, thermodynamic from solid, 2h, API alone, sample concentration not given): 50 µg/mL (≈ 0.104 mM)
solubility at 4 h ([3]; simulated gastric fluid, thermodynamic from solid, 4h, sample Supersaturated): 50 µg/mL (≈ 0.104 mM)
solubility at 24 h ([3]; simulated gastric fluid, thermodynamic from solid, 24h, sample Supersaturated): 50 µg/mL (≈ 0.104 mM)
AUC [4]: 59 ng·h/mL
Cmax [4]: 22 ng/mL
AUC [5]: 59 ng·h/mL
Cmax [5]: 22 ng/mL
SMILES: C/C=C/c1cc(Nc2cc(N3CCN(C)CC3)nc(Oc3cc(F)c4[nH]c(C)cc4c3F)n2)n[nH]1 [API]
